Measured values from the supplement of paper PMC4858399.

Columns and labels:
Conditions in all cases: exposure time 48 h
[1] = tested on: Caenorhabditis elegans N2; assay: mean nematode size ln(EXT) after 48 h, plate-adjusted (DMSO control set to 6) (ln(EXT), control-adjusted); higher = larger nematodes / less growth inhibition
Summary of the method: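 Worms were measured individually for extinction on the Biosort after 48 h at 20°C. They began as synchronised C. elegans N2 L1 larvae in K-medium with killed OP50, 1% DMSO and 0.5–200 µM chemical. Once debris had been removed by a growth model, values were natural-logged and averaged per well to give mean size. The plate adjustment subtracted the vehicle control mean and added 6.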

[2] = tested on: Caenorhabditis elegans N2; assay: lowest effective concentration for larval growth inhibition (size below effect threshold); higher = less potent
Summary of the method: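 L1 larvae of C. elegans N2 (50 per 96-well) were grown in K-medium with killed bacteria and 1% DMSO, with the chemical at 0.5, 1, 5, 10, 50, 100 or 200 µM, for 48 h at 20°C. Per-worm extinction from the Biosort stood for size and was log-transformed into well means. For each chemical, the lowest effective concentration is the first dose where plate-adjusted mean size falls under the threshold and stays under it at the higher doses, using a threshold of 5.665.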

[3] = tested on: Caenorhabditis elegans N2; assay: AC50 for larval growth inhibition (Hill fit); higher = less potent
Summary of the method: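 Worms were synchronised C. elegans N2 L1 larvae, 50 per well of a 96-well plate, kept 48 h at 20°C in K-medium with killed OP50, 1% DMSO and 0.5–200 µM chemical. Size was taken as COPAS Biosort extinction, log-transformed and averaged per well, using only wells with at least 10 worms. AC50 was estimated by a constrained Hill fit with weighted genetic-algorithm regression; values outside the range are censored.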

SMILES	mean nematode size ln(EXT) (ln) ([1]; 0.5 µM)	mean nematode size ln(EXT) (ln) ([1]; 1 µM)	mean nematode size ln(EXT) (ln) ([1]; 5 µM)	mean nematode size ln(EXT) (ln) ([1]; 10 µM)	mean nematode size ln(EXT) (ln) ([1]; 50 µM)	mean nematode size ln(EXT) (ln) ([1]; 100 µM)	mean nematode size ln(EXT) (ln) ([1]; 200 µM)	lowest effective concentration [2] [µM]	AC50 for larval growth inhibition [3] [µM]
O=C(O)C(F)(F)C(F)(F)C(F)(F)C(F)(F)C(F)(F)C(F)(F)C(F)(F)C(F)(F)C(F)(F)F [Perfluorodecanoic acid]	5.85	5.87	5.14	4.6	4.06	3.96	3.16	5	14.6
C#CCOC(=O)[C@@H](C)Oc1ccc(Oc2ncc(Cl)cc2F)cc1 [Clodinafop-propargyl]	5.98	5.9	6.05	5.94	6.15	5.84	5.14	200	106
CC(C)C(=O)Nc1ccc([N+](=O)[O-])c(C(F)(F)F)c1 [Flutamide]	5.89	5.88	5.89	5.62	4.96	4.82	4.05	10	112
CCSC(=O)N(CC)C1CCCCC1 [Cycloate]	6.06	6.1	5.93	6.05	6.03	5.76	5.06	200	105
CCC(C)Nc1c([N+](=O)[O-])cc(C(C)(C)C)cc1[N+](=O)[O-] (stereo not given) [Butralin]	5.81	5.77	5.75	5.8	4.89	4.04	4.68	50	48.9
CCCCCCCCCCCCCO [1-Tridecanol]	5.9	5.76	5.58	5.34	3.57	3.5	3.54	5	15.4
CCOP(=O)(SC(C)CC)N1CCSC1=O (stereo not given) [Fosthiazate]	5.92	5.99	6.15	6.12	5.94	5.79	5.64	200	93.1
CC1(C)C(C=C(Cl)Cl)C1C(=O)OCc1cccc(Oc2ccccc2)c1 (stereo not given) [Permethrin]	5.91	5.9	5.67	5.56	5.41	4.98	5.24	10	11.2
O=C(CCl)c1ccccc1 [2-Chloroacetophenone]	5.82	5.84	5.82	5.48	5.82	5.8	4.95	200	> 200
COc1cccc(C(=O)NN(C(=O)c2cc(C)cc(C)c2)C(C)(C)C)c1C [Methoxyfenozide]	6.16	6.1	6.05	5.9	6	6.01	4.43	200	195
CC(C1CC1)C(O)(Cn1cncn1)c1ccc(Cl)cc1 (stereo not given) [Cyproconazole]	5.92	5.92	5.85	5.99	6.17	6.33	5.59	200	> 200
CC(C)(C)C(O)C(Oc1ccc(Cl)cc1)n1cncn1 (stereo not given) [Triadimenol]	5.84	5.88	5.9	5.93	5.79	5.95	5.59	200	> 200
CNC(=O)ON=C(C)SC [Methomyl]	5.94	5.95	6.08	5.93	5.19	4.65	3.39	50	91.6
NC(=O)c1nc(-c2cccc(-c3cc(F)ccc3OCC(F)(F)C(F)(F)F)c2)n[nH]1	5.73	5.81	5.71	5.78	5.53	4.97	5.09	50	50.6
CNCc1ccc(NC(=O)c2c[nH]c3c2C(=O)CCC3)cc1	5.9	6.14	6.21	6.19	6.15	6.09	5.65	200	> 200
CCCCCCCCCCCCc1cccc(S(=O)(=O)O)c1 [Triethanolamine dodecylbenzene sulfonate]	5.43	5.59	5.54	5.69	5.03	4.02	4.04	50	50.5
COC(=O)CCCCC(=O)OC [Dimethyl adipate]	5.82	5.88	5.81	5.79	5.85	5.85	5.65	200	> 200
CC1(C)C(=O)N(Br)C(=O)N1Br [1,3-Dibromo-5,5-dimethylhydantoin]	5.7	5.78	5.81	5.86	5.87	5.87	5.61	200	> 200
CCOP(=S)(Oc1cnc(C(C)(C)C)nc1)OC(C)C (stereo not given) [Tebupirimfos]	6	6.01	5.89	5.76	4.5	3.66	3.56	50	46.5
O=C(O)c1cccc(C[C@@H]2COc3ccc(OCc4nc5cc(F)ccc5s4)cc3[C@@H]2O)c1	5.95	5.88	5.79	5.88	5.87	5.92	5.09	200	> 200
CC1(C)CC/C(=C\c2ccc(Cl)cc2)C1(O)Cn1cncn1 (stereo not given) [Triticonazole]	5.82	5.72	6.07	5.84	5.91	5.68	5.25	200	120
CCC(C)N(C)C(=O)c1cc2ccccc2c(-c2ccccc2Cl)n1 (stereo not given)	5.92	5.93	5.99	5.97	6.11	5.55	5.43	100	95.2
Cn1c(=O)c2nc[nH]c2n(C)c1=O [Theophylline]	5.97	5.97	5.98	6.02	5.84	5.9	5.59	200	> 200
CCOC(=O)NCCOc1ccc(Oc2ccccc2)cc1 [Fenoxycarb]	5.96	5.87	5.9	5.59	4.47	4.1	3.72	10	37.2

SMILES	mean nematode size ln(EXT) (ln) ([1]; 0.5 µM)	mean nematode size ln(EXT) (ln) ([1]; 1 µM)	mean nematode size ln(EXT) (ln) ([1]; 5 µM)	mean nematode size ln(EXT) (ln) ([1]; 10 µM)	mean nematode size ln(EXT) (ln) ([1]; 50 µM)	mean nematode size ln(EXT) (ln) ([1]; 100 µM)	mean nematode size ln(EXT) (ln) ([1]; 200 µM)	lowest effective concentration [2] [µM]	AC50 for larval growth inhibition [3] [µM]
CCC(C)(C)c1ccc(O)cc1 [4-(2-methylbutan-2-yl)phenol]	5.8	5.81	5.74	5.76	5.75	5.92	4.97	200	> 200
COc1cc(OC)nc(NC(=O)NS(=O)(=O)c2ncccc2OCC(F)(F)F)n1 [Trifloxysulfuron-sodium]	5.81	5.77	6.02	5.88	5.9	5.97	5.51	200	196
CCCCOC(=O)[C@@H](C)Oc1ccc(Oc2ccc(C(F)(F)F)cn2)cc1 [Fluazifop-P-butyl]	6.18	6.51	6.31	6.37	6.22	5.52	4.99	100	98.7
CON(C)C(=O)Nc1ccc(Cl)c(Cl)c1 [Linuron]	6.04	6.22	6.19	5.98	6.16	5.57	4.43	100	104
N#CC(CCc1ccc(Cl)cc1)(Cn1cncn1)c1ccccc1 (stereo not given) [Fenbuconazole]	6.18	6.1	6.07	5.65	5.13	5.27	4.39	10	177
C=CC1(C)OC(=O)N(c2cc(Cl)cc(Cl)c2)C1=O (stereo not given) [Vinclozolin]	5.76	5.01	3.56	3.46	3.32	3.11	3.61	1	1.18
O=C(N[C@@H](c1ccccc1)[C@@H]1CCCCN1)c1cccc(C(F)(F)F)c1Cl	5.86	5.78	5.75	5.66	5.2	4.58	4.47	10	148
COC(=O)[C@H]1[C@H]2C[C@@H]3c4[nH]c5cc(OC)ccc5c4CCN3C[C@H]2C[C@@H](OC(=O)c2cc(OC)c(OC)c(OC)c2)[C@@H]1OC [Reserpine]	5.86	5.87	5.74	5.66	5.04	4.95	5.17	10	12.6
COC(=O)c1ccccc1N [Methyl 2-aminobenzoate]	5.88	5.87	5.91	5.88	5.8	5.7	5.64	200	> 200
CCCCCCCCCCCCN1CCCC1=O [N-Lauryl-2-pyrrolidone]	5.42	5.51	5.45	4.97	3.49	3.53	3.03	≤ 0.5	16.1
COP(=O)(OC)O/C(C)=C/C(=O)N(C)C [Dicrotophos]	6.11	6.42	6.04	6.07	6.05	6.05	5.85	> 200	
OCCOCCOCCO [Triethylene glycol]	5.84	5.84	5.95	5.98	5.88	5.87	5.84	> 200	
CCOCCOCCOCCO [2-[2-(2-Ethoxyethoxy)ethoxy]ethanol]	5.96	5.89	5.95	5.94	5.91	5.9	5.83	> 200	
OCC1CO1 (stereo not given) [Glycidol]	5.87	5.79	5.81	5.79	5.78	5.49	5.83	> 200	
Cc1cccc(C)c1N [2,6-Dimethylaniline]	5.87	6.07	6.05	5.98	6	5.83	5.84	> 200	
Cc1cccc(C)c1O [2,6-Dimethylphenol]	5.9	5.89	5.89	5.78	5.88	5.65	5.82	> 200	
ClC1C(Cl)C(Cl)C(Cl)C(Cl)C1Cl (stereo not drawn) [beta-1,2,3,4,5,6-Hexachlorocyclohexane]	5.52	5.63	5.65	5.7	5.74	5.75	5.87	> 200	
O=C(O)C1=NN(c2ccc(S(=O)(=O)O)cc2)C(=O)C1N=Nc1ccc(S(=O)(=O)O)cc1 (stereo not given) [Tartrazine]	6.02	5.96	5.97	5.98	6.03	5.85	5.92	> 200	
Cc1cc(=O)[nH]c(=S)[nH]1 [Methylthiouracil]	6.01	5.97	5.94	5.97	6	6.12	5.98	> 200	
CCC(C)OC(=O)N1CCCCC1CCO (stereo not given) [Icaridin]	5.45	5.77	5.76	6.03	5.43	5.79	5.97	> 200	
CC1=C(/C=C/C(C)=C/C=C/C(C)=C/CO)C(C)(C)CCC1 [Retinol]	5.92	5.89	5.91	5.75	5.9	5.84	5.68	> 200	
CC(Cl)(Cl)C(=O)O [Dalapon]	5.78	6.06	6.05	6.04	5.95	5.93	5.79	> 200	
COc1cccc([C@H](O)C2CCN(CCc3ccc(F)cc3)CC2)c1OC [Volinanserin]	5.67	5.79	5.78	5.95	5.83	5.8	5.78	> 200	
